US20230391730A1, “INHIBITORS OF THE BROMODOMAIN PHD FINGER TRANSCRIPTION FACTOR (BPTF) AS ANTI-CANCER AGENTS” (Regents of the University of Minnesota, priority 2020, published 2023)
pIC50, pKd: −log10 of the molar value. Entries after “also recorded” stand apart in the source; their conditions may differ.

Columns and labels:
[1] = type: physicochemical
Description: UV-Vis Methods. Compounds were diluted in DMSO at a top concentration of 100 mM. 2-fold serial dilutions in DMSO where performed followed by 1000-fold dilution into phosphate saline buffer (PBS) to get a final top concentration of 100 μM in 0.1% DMSO for each compound. UV-Vis measurements at 254 nm were taken on a Biomate 3S Spectrophotometer.

[2] = target: T1, BPTF bromodomain (Homo sapiens, UniProt Q12830); assay: BPTF AlphaScreen competitive inhibition assay; type: binding
T1 construct: 30 nM for His9-tagged BPTF bromodomain and 50 nM for the biotinylated peptide were used; made in house
Description: (§3) General Procedure for AlphaScreen Assay.^36 Unlabeled His9-tagged BPTF and BRD4 D1 were expressed and purified as described previously.^36 The AlphaScreen assay procedures for BPTF and BRD4 bromodomains were adapted from the manufacturers protocol (PerkinElmer, USA). […] The biotinylated Histone H4 KAc5,8,12,16 peptide was purchased from EpiCypher, with the sequence:
(§4) All reagents were diluted in the assay buffer (50 mM HEPES-Na^+ (ChemImpex), 100 mM NaCl (SigmaAldrich), 0.05% CHAPS (RPI), 0.1% BSA (SigmaAldrich), pH 7.4). The final assay concentrations (after the addition of all assay components) of 30 nM for His9-tagged BPTF bromodomain and 50 nM for the biotinylated peptide were used. […] The plate was sealed and kept at room temperature for 30 min, followed by the addition of 5 μL of the biotinylated peptide. 5 μL of nickel chelate acceptor beads was added to each well under low light conditions (<100 lux), to a final concentration of 20 μg/mL, and the plate was incubated at room temperature in the dark for 30 minutes. This was followed by the addition of 5 μL (20 μg/mL final concentration) of streptavidin donor beads in low light conditions. After incubation for 30 min in the dark, the plate was read in AlphaScreen mode using a PerkinElmer EnSpire plate reader. […] IC50 values were calculated in GraphPad Prism 5 using sigmoidal 4-parameter logistic (4PL) curve

[3] = tested on: Sfn; assay: RT-qPCR of BPTF regulated genes in Eph4 cells, Sfn; type: cell-based, murine; settings: 5 μM, 24 h, relative to DMSO
Description: qPCR methods. Eph4 cells were treated for 24 h and harvested in trizol. RNA extraction was carried out via chloroform extractions. cDNA creation was completed via SuperScript III cDNA creation kit (Invitrogen, #12574026). All qpcrs are normalized to EPH4 DMSO and the house keeping gene beta actin. Bars represent 2 biological replicates and 3 technical replicates. All statistical analysis are student's t-test carried out on GraphPad. Reactions were carried out on the Quantstudio 6 platform using Sybr Green PCR Master Mix (Applied Biosystems, #4309155) Statistically significant differences for cell line treatment groups were considered with a one-way Anova p-value lower than 0.05 (p<0.05).
It's been previously shown that BPTF inhibition was associated with alteration to lineage commitment and stem cell maintenance. Loss of BPTF expression in a mixed population of Krt5-expressing mammary stem cells induced differentiation, a process that was accompanied by changes to chromatin accessibility and altered gene expression activation. The effects of the BPTF inhibitors described herein were investigated in mammary luminal cells.

[4] = tested on: 4T1 cells; assay: Combination with doxorubicin in 4T1 cells (MTS assay); type: cell-based, mouse; settings: for sensitization of 4T1 cells to doxorubicin: 50 nM doxorubicin
Description: (§1) Cell culture methods. 4T1 cells were grown to a confluency of 50-60% using media containing DMEM with 10% fetal bovine serum (FES), 2 mM glutamine and penicillin-streptomycin. 4T1 cells with snRNA-mediated BPTF knockdown (KD) were prepared as described previously. For NURF inhibitor toxicity study, 4000 cells/well were seeded in a 96-well plate and allowed to adhere overnight. The next day, 10 different dilutions of inhibitors were prepared starting with a highest concentration of 1.0 mM and further serially diluted 10 times to get the lowest concentration of 1.95 μM. Cells were treated with the inhibitors in complete media for 4 days. Thereafter, the MTS reagent was prepared using the CellTitre 96 aqueous MTS reagent (Promega, Cat #G1111) and phenazine methosulphate (Sigma, Cat #P9625). The MTS assay was performed as per manufacturer's protocol and the absorbance was recorded at a wavelength of 490 nm. Fraction cell survival was calculated using untreated control cells to indicate complete survival (1.0) and blank solutions as 0.0 survival. The data was derived from three independent experiments (N=3) and fraction survival was plotted as mean fraction survival±SEM using GraphPad Prism software. For checking the toxicity on wildtype and BPTF knockdown cells, three doses were selected for each inhibitor based on theft toxicity curves and treated for 4 days alone or in combination with 50 nM doxorubicin. Fraction survival was measured and calculated by MIS assay as mentioned above.

[5] = tested on: Eph4 cells; settings: 5 μM
Description: Cytotoxicity experiments with Eph4 cells. […] Media containing each condition were changed every 12 hours. […] Cells were also stained with Live/Dead Violet (Thermo Scientific, #L34964) in accordance to manufacturers specifications. All flow was performed on a Macsquant 10 (Miltenyl Biotec) and analyzed on FlowJo (TreeStar/BD).

[6] = tested on: 4T1 cells; assay: Inhibitor toxicity in 4T1 cells (MTS assay); type: cell-based, mouse; settings: inhibitor alone
Description: as §1, with “For checking the toxicity on wildtype and BPTF knockdown cells, three doses were selected for each inhibitor based on theft toxicity curves and treated for 4 days alone or in combination with 50 nM doxorubicin.” left out

[7] = tested on: 4T1 cells with shRNA-mediated BPTF knockdown; assay: Inhibitors with doxorubicin in BPTF knockdown 4T1 cells; type: cell-based, mouse
Description: as §1, with “For checking the toxicity on wildtype and BPTF knockdown cells, three doses were selected for each inhibitor based on theft toxicity curves and treated for 4 days alone or in combination with 50 nM doxorubicin.” left out

[8] = disclosed by the structural genomics consortium; cited from earlier work
[9] = target: T2, CECR2 (Homo sapiens, UniProt Q9BXF3); assay: BROMOscan, CECR2; type: binding; design: off-target class I (PCAF, GCN5L2, CECR2,) and class IV (BRD7, BRD9) bromodomains and BRD4(1); purchased; settings: BROMOscan one-point measurement at 140 nM
Excerpt: (§2) Based on the preliminary assessment of BPTF selectivity and affinity of BZ1 by PrOF NMR and AlphaScreen competition assays, the ligand was characterized using a commercial BROMOscan assay. […]. Given the low concentration of ligand and protein used, AlphaScreen can be used to estimate K values as was previously the case for characterizing BRD4-ligand interactions, however the assay for BPTF may slightly underestimate the affinity. […] […]. Recently reported pyridazinone-based inhibitors also bind to these proteins and BRD9 was reported as the closest off-target for TP-238. These studies supported good on target-BPTF inhibition, and identified several off-targets bromodomains for a more quantitative selectivity analysis.
Target sequence in this assay (Q9BXF3 434-538 limits assumed): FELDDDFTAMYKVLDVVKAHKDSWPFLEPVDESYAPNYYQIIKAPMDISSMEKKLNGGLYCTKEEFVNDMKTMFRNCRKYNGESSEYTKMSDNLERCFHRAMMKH

[10] = target: T3, GCN5L2 (Homo sapiens, UniProt Q92830); assay: BROMOscan, GCN5L2; type: binding; settings: BROMOscan one-point measurement at 140 nM
T3 construct: off-target class I (PCAF, GCN5L2, CECR2,) and class IV (BRD7, BRD9) bromodomains and BRD4(1); purchased
T3 sequence (Q92830 728-832 limits assumed): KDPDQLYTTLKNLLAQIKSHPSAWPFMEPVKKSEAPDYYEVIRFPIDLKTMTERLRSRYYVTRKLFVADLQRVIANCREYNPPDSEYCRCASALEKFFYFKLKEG
Excerpt: as §2

[11] = target: T4, PCAF (Homo sapiens, UniProt Q92831); assay: PrOF NMR titration, 5FW-PCAF; type: binding; settings: 5FW-labeled protein
T4 construct: three class I bromodomains, BPTF, PCAF, CECR2 and one class II bromodomain, BRD4(1) were fluorine-labelled; made in house
T4 sequence (Q92831 723-827): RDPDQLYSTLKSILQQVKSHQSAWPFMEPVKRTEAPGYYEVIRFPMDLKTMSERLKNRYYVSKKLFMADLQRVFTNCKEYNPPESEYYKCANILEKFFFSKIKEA
Description: (§5) Protein-Observed Fluorine (PrOF) NMR. […] 40-50 μM of protein in 50 mM TRIS, 100 mM NaCl, and pH 7.4 was diluted by adding 25 μL of D2O and 2 μL of 0.1% TFA for NMR locking and referencing purposes, respectively. […] Ligands were titrated and the change in chemical shift relative to the control sample was plotted as a function of ligand concentration to generate binding isotherms. The data was processed in Mestrenova and isotherms were fit using GraphPad Prism with the equation below. Δδobs is the change in chemical shift, [L] is the total ligand concentration, and [P] is the total protein concentration:
(§6) The tryptophan residue in the WPF shelf of three class I bromodomains, BPTF, PCAF, CECR2 and one class II bromodomain, BRD4(1) were fluorine-labelled (FIG. 4A) and the chemical shift perturbation on titrating in BZ1 was observed.

[12] = target: T5, BRD4(1) (Homo sapiens, UniProt O60885); assay: PrOF NMR titration, 5FW-BRD4(1); type: binding; design: three class I bromodomains, BPTF, PCAF, CECR2 and one class II bromodomain, BRD4(1) were fluorine-labelled; made in house; settings: 5FW-labeled protein
Description: as §5, §6

[13] = target: T2, CECR2; assay: PrOF NMR titration, 5FW-CECR2; type: binding; design: three class I bromodomains, BPTF, PCAF, CECR2 and one class II bromodomain, BRD4(1) were fluorine-labelled; made in house; settings: 5FW-labeled protein
Target sequence in this assay (Q9BXF3 434-538): as the sequence (Q9BXF3 434-538 limits assumed) above
Description: as §5, §6

[14] = target: T6, BPTF (Homo sapiens, UniProt Q12830); assay: BROMOscan, BPTF; type: binding
T6 construct: Kd values for BZ1 with BPTF and off-target class I (PCAF, GCN5L2, CECR2,) and class IV (BRD7, BRD9) bromodomains; purchased

[15] = target: T5, BRD4(1); assay: BRD4(1) AlphaScreen competitive inhibition assay; type: binding; design: Unlabeled His9-tagged BPTF and BRD4 D1 were expressed and purified as described previously; made in house
Description: as §3, §4

[16] = target: T7, PCAF (Homo sapiens, UniProt Q92831); assay: BROMOscan, PCAF; type: binding
T7 construct: off-target class I (PCAF, GCN5L2, CECR2,) and class IV (BRD7, BRD9) bromodomains and BRD4(1); purchased
T7 sequence (Q92831 723-827 limits assumed): T4 sequence (Q92831 723-827)
Description: Given that these measurements were only estimates of affinity, a full titration was carried out for five additional bromodomains (FIG. 5B).

[17] = target: T2, CECR2; settings: disclosed by the structural genomics consortium; cited from earlier work
Target sequence in this assay (Q9BXF3 whole entry): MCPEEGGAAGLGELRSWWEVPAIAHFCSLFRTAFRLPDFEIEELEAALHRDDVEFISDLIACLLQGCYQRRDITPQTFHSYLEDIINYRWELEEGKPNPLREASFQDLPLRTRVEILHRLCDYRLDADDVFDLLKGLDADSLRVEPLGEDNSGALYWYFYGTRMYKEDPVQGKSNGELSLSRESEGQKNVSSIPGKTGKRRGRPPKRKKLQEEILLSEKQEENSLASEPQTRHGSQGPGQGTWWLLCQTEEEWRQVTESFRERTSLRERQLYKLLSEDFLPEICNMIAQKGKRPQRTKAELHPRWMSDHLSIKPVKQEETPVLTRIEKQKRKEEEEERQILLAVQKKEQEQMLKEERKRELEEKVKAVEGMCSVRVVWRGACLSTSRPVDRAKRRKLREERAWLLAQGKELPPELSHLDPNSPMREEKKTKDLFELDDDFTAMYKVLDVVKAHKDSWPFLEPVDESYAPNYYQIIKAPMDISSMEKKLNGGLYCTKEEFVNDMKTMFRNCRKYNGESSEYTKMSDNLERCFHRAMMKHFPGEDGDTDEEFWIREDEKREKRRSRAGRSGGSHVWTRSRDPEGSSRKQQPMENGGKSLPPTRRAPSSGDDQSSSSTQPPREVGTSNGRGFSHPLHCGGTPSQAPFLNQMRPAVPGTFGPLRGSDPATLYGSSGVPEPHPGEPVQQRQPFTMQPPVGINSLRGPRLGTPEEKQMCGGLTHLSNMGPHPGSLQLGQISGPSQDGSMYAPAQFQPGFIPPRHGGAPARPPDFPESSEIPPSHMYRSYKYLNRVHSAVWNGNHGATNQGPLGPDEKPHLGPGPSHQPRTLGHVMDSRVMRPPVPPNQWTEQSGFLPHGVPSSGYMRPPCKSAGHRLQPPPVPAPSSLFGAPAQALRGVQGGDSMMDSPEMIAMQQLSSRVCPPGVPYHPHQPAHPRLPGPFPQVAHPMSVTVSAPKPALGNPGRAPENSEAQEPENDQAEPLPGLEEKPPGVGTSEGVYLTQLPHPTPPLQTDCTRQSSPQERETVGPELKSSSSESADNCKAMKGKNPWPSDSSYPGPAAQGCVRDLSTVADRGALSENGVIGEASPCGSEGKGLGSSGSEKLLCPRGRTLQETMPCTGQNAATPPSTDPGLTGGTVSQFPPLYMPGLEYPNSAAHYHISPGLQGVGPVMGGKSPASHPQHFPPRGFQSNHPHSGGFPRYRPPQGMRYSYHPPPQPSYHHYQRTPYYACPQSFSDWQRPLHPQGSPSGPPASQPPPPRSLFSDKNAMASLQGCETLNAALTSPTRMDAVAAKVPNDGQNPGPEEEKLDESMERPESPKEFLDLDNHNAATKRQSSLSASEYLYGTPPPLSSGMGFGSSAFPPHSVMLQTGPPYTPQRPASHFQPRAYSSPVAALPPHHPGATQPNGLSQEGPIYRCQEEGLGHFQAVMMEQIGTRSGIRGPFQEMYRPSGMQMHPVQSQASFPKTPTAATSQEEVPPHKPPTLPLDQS

[18] = target: PCAF (Homo sapiens, UniProt Q92831); settings: previously reported; cited from earlier work
Target sequence in this assay (Q92831 whole entry): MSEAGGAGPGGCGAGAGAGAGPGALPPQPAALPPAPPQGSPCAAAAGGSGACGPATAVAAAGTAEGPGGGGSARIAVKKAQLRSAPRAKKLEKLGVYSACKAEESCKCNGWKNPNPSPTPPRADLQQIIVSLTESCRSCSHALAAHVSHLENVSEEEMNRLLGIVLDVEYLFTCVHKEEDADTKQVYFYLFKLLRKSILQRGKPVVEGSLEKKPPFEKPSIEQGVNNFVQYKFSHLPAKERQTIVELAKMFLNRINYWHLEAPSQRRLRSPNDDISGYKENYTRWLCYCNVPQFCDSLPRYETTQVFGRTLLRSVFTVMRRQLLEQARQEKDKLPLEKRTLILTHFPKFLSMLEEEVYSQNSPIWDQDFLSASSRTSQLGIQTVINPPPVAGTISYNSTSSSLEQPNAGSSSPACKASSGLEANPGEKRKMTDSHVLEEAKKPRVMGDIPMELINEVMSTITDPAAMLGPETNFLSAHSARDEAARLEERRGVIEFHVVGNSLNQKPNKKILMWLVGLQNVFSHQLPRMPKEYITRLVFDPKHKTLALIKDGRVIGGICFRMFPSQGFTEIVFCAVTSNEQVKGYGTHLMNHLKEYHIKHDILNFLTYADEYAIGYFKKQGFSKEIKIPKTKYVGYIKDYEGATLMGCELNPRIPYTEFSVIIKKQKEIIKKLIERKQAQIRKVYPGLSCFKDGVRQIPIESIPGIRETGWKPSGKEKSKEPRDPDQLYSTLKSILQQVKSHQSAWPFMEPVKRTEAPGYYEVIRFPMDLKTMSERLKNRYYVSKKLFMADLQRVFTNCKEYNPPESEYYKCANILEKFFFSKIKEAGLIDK

[19] = target: T8, BRD9 (Homo sapiens, UniProt Q9H8M2); settings: previously reported; cited from earlier work
T8 sequence (Q9H8M2 1-597): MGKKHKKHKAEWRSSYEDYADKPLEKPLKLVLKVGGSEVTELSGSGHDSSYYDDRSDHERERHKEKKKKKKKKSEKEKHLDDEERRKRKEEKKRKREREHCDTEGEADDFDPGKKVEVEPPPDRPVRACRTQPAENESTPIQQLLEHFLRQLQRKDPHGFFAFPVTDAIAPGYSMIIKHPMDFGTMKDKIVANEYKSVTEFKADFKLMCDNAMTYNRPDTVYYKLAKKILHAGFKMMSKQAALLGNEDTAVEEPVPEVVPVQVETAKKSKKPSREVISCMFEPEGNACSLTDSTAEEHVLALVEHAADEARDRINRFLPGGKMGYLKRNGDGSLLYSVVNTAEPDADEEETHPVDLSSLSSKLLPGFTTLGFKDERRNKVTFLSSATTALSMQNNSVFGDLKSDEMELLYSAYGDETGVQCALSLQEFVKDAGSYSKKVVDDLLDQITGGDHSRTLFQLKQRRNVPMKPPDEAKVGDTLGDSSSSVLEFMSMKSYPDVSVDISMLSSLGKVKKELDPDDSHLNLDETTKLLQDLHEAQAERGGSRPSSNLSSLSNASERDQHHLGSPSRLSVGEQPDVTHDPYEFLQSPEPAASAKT

In the case of `CN(C)CCc1ccc(Nc2c(Cl)cnn(C)c2=O)cc1` [Compound 20, 5-chloro-4-((4-(2-(dimethylamino)ethyl)phenyl)amino)-2-methylpyridazin-3(2H)-one], the solubility [1] was ≥ 100 µM, the pIC50 [2] was 5.00 and the “weaker affinity than 18” value [2] was 140 fold. For the same compound, the “L.E. (ligand efficiency)” value ([2]; from BPTF AlphaScreen) was 0.32, the “Sfn mRNA level” value [3] was “not significantly affected” and the “sensitization of 4T1 cells to doxorubicin” value (from here on “sensitization of 4T1 cells”) [4] was “did not”.

With `CN(C)CCc1ccc(Nc2cnn(C)c(=O)c2Cl)cc1` [Compound 19, 4-chloro-5-((4-(2-(dimethylamino)ethyl)phenyl)amino)-2-methylpyridazin-3(2H)-one] the solubility [1] was ≥ 100 µM, the “Sfn mRNA level” value [3] was “statistically significant increase” and the caspase activation [5] was “lack of caspase activation”. For the same compound, the “sensitization of 4T1 cells” value [4] was “synergize with chemotherapy drug doxorubicin; also recorded: sensitized 4T1 cells to doxorubicin” and the “less effective than BZ1” value ([4]; dose dependence experiment with doxorubicin) was 2-4 fold.

In the case of `COC(=O)c1cccc(NC(=O)N[C@H]2CCN(c3ccnc(Nc4ccc(F)cc4)n3)C2)c1` [AU1, reference compound], the “Sfn mRNA level” value [3] was “upregulated Sfn but did not reach a high enough level of statistical significance”, the “concentration at which toxicity starts” value [6] was “above 16 μM” and the “further toxicity in BPTF knockdown cells” value [7] was “Additional toxicity was observed”. For the same compound, the “sensitization of 4T1 cells” value [4] was “synergize with chemotherapy drug doxorubicin”.

For `Cc1c(Nc2ccc(S(=O)(=O)N3CCN(C)CC3)cc2F)nc2ccc(-c3cnn(C4CC4)c3)cn2c1=O` [NVS-BPTF-1], the “solubility and ADME properties” value [8] is given as “poor solubility and ADME properties”.

In the case of `Cn1ncc(Nc2ccc(CCN)cc2)c(Cl)c1=O` [Compound 18, 5-((4-(2-aminoethyl)phenyl)amino)-4-chloro-2-methylpyridazin-3(2H)-one], the solubility [1] was ≥ 100 µM, the “inhibition of CECR2” value [9] was “lower levels of inhibition” and the “inhibition of GCN5L2” value [10] was “lower levels of inhibition”. The “chemical exchange regime with PCAF” value [11] was “slow exchange regime stoichiometric titration”, the “sensitization of 4T1 cells” value ([4]; listed as BZ1) was “synergize with chemotherapy drug doxorubicin; also recorded: sensitized 4T1 cells to doxorubicin” and the “chemical exchange regime with BRD4(1)” value [12] was “fast-intermediate exchange”. The “chemical exchange regime with CECR2” value [13] was “intermediate chemical exchange”.

`C#CCn1ncc(Nc2ccc(CN)cc2)c(Cl)c1=O` [Compound 24, 5-((4-(aminomethyl)phenyl)amino)-4-chloro-2-(prop-2-yn-1-yl)pyridazin-3(2H)-one] gave a pKd [14] of 6.70, a pIC50 [15] of 4.15 and a pIC50 [2] of 6.42. The pKd [16] was 6.64.

For `CN(C)CCCOc1ccc(-c2cc(NCCCn3cccn3)nc(S(C)(=O)=O)n2)cc1` [TP-238], the “higher affinity for CECR2 over BPTF” value [17] is given as 12 fold.

In the case of `Cn1ncc(Nc2ccccc2)c(Cl)c1=O` [Compound 6, 4-chloro-2-methyl-5-(phenylamino)pyridazin-3(2H)-one], the “affinity for PCAF” value [18] is listed as 10 µM, the “affinity for BRD9” value [19] is listed as 2.5 µM and the “improvement in affinity compared to previous aliphatic amine analogues” value [2] is listed as 10 fold.
